Reference: the NIST ThermoML archive (doi:10.1021/je200721d)
Numbers after ± are expanded uncertainties.

Assay: xn = mol fraction of the nth substance listed
Settings: Liquid, Vibrating tube method

CCCCCCCCCC [decane] + CCCCCC
Settings	mass density [kg/m3]
362.91 K, 7000 kPa, x2 = 0.0456	681.43 ± 0.31
362.91 K, 8000 kPa, x2 = 0.0456	682.51 ± 0.31
362.91 K, 9000 kPa, x2 = 0.0456	683.59 ± 0.32
362.91 K, 10000 kPa, x2 = 0.0456	684.65 ± 0.33
362.91 K, 11000 kPa, x2 = 0.0456	685.7 ± 0.34
362.91 K, 12000 kPa, x2 = 0.0456	686.71 ± 0.35
362.91 K, 13000 kPa, x2 = 0.0456	687.73 ± 0.35
362.91 K, 14000 kPa, x2 = 0.0456	688.73 ± 0.36
362.91 K, 15000 kPa, x2 = 0.0456	689.71 ± 0.37
362.91 K, 16000 kPa, x2 = 0.0456	690.69 ± 0.38
362.91 K, 17000 kPa, x2 = 0.0456	691.65 ± 0.39
362.91 K, 18000 kPa, x2 = 0.0456	692.61 ± 0.4
362.91 K, 19000 kPa, x2 = 0.0456	693.55 ± 0.41
362.91 K, 20000 kPa, x2 = 0.0456	694.48 ± 0.41
362.91 K, 21000 kPa, x2 = 0.0456	695.43 ± 0.42
362.91 K, 22000 kPa, x2 = 0.0456	696.32 ± 0.43
362.91 K, 23000 kPa, x2 = 0.0456	697.22 ± 0.44
362.91 K, 24000 kPa, x2 = 0.0456	698.09 ± 0.45
362.91 K, 25000 kPa, x2 = 0.0456	698.96 ± 0.46
362.93 K, 1000 kPa, x2 = 0.7524	623.36 ± 0.28
362.93 K, 2000 kPa, x2 = 0.7524	624.97 ± 0.29
362.93 K, 3000 kPa, x2 = 0.7524	626.55 ± 0.3
362.93 K, 4000 kPa, x2 = 0.7524	628.12 ± 0.31
362.93 K, 5000 kPa, x2 = 0.7524	629.63 ± 0.32
362.93 K, 6000 kPa, x2 = 0.7524	631.14 ± 0.32
362.93 K, 7000 kPa, x2 = 0.7524	632.58 ± 0.33
362.93 K, 8000 kPa, x2 = 0.7524	634.03 ± 0.34
362.93 K, 9000 kPa, x2 = 0.7524	635.42 ± 0.35
362.93 K, 10000 kPa, x2 = 0.7524	636.78 ± 0.36
362.93 K, 11000 kPa, x2 = 0.7524	638.11 ± 0.37
362.93 K, 12000 kPa, x2 = 0.7524	639.39 ± 0.38
362.93 K, 13000 kPa, x2 = 0.7524	640.69 ± 0.39
362.93 K, 14000 kPa, x2 = 0.7524	641.96 ± 0.4
362.93 K, 15000 kPa, x2 = 0.7524	643.24 ± 0.41
362.93 K, 16000 kPa, x2 = 0.7524	644.37 ± 0.42
362.93 K, 17000 kPa, x2 = 0.7524	645.56 ± 0.43
362.93 K, 18000 kPa, x2 = 0.7524	646.73 ± 0.44
362.93 K, 19000 kPa, x2 = 0.7524	647.87 ± 0.45
362.93 K, 20000 kPa, x2 = 0.7524	649 ± 0.46
362.93 K, 21000 kPa, x2 = 0.7524	650.11 ± 0.47
362.93 K, 22000 kPa, x2 = 0.7524	651.2 ± 0.48
362.93 K, 23000 kPa, x2 = 0.7524	652.27 ± 0.49
362.93 K, 24000 kPa, x2 = 0.7524	653.3 ± 0.51
362.93 K, 25000 kPa, x2 = 0.7524	654.33 ± 0.52
362.94 K, 1000 kPa, x2 = 0.4968	646.01 ± 0.28
362.94 K, 2000 kPa, x2 = 0.4968	647.42 ± 0.28
362.94 K, 3000 kPa, x2 = 0.4968	648.86 ± 0.29
362.94 K, 4000 kPa, x2 = 0.4968	650.21 ± 0.3
362.94 K, 5000 kPa, x2 = 0.4968	651.6 ± 0.3
362.94 K, 6000 kPa, x2 = 0.4968	652.91 ± 0.31
362.94 K, 7000 kPa, x2 = 0.4968	654.2 ± 0.32
362.94 K, 8000 kPa, x2 = 0.4968	655.48 ± 0.33
362.94 K, 9000 kPa, x2 = 0.4968	656.71 ± 0.34
362.94 K, 10000 kPa, x2 = 0.4968	657.94 ± 0.35
362.94 K, 11000 kPa, x2 = 0.4968	659.13 ± 0.36
362.94 K, 12000 kPa, x2 = 0.4968	660.32 ± 0.37
362.94 K, 13000 kPa, x2 = 0.4968	661.45 ± 0.38
362.94 K, 14000 kPa, x2 = 0.4968	662.6 ± 0.39
362.94 K, 15000 kPa, x2 = 0.4968	663.75 ± 0.39
362.94 K, 16000 kPa, x2 = 0.4968	664.81 ± 0.4
362.94 K, 17000 kPa, x2 = 0.4968	665.88 ± 0.41
362.94 K, 18000 kPa, x2 = 0.4968	666.95 ± 0.42
362.94 K, 19000 kPa, x2 = 0.4968	667.98 ± 0.43
362.94 K, 20000 kPa, x2 = 0.4968	669.01 ± 0.44
362.94 K, 21000 kPa, x2 = 0.4968	670.03 ± 0.45
362.94 K, 22000 kPa, x2 = 0.4968	671.04 ± 0.46
362.94 K, 23000 kPa, x2 = 0.4968	672.03 ± 0.47
362.94 K, 24000 kPa, x2 = 0.4968	673 ± 0.48
362.94 K, 25000 kPa, x2 = 0.4968	673.96 ± 0.49
362.95 K, 1000 kPa, x2 = 0.2185	664.98 ± 0.27
362.95 K, 2000 kPa, x2 = 0.2185	666.23 ± 0.27
362.95 K, 3000 kPa, x2 = 0.2185	667.46 ± 0.28
362.95 K, 4000 kPa, x2 = 0.2185	668.71 ± 0.29
362.95 K, 5000 kPa, x2 = 0.2185	669.93 ± 0.29
362.95 K, 6000 kPa, x2 = 0.2185	671.12 ± 0.3
362.95 K, 7000 kPa, x2 = 0.2185	672.27 ± 0.31
362.95 K, 8000 kPa, x2 = 0.2185	673.43 ± 0.32
362.95 K, 9000 kPa, x2 = 0.2185	674.54 ± 0.33
362.95 K, 10000 kPa, x2 = 0.2185	675.66 ± 0.34
362.95 K, 11000 kPa, x2 = 0.2185	676.75 ± 0.34
362.95 K, 12000 kPa, x2 = 0.2185	677.81 ± 0.35
362.95 K, 13000 kPa, x2 = 0.2185	678.85 ± 0.36
362.95 K, 14000 kPa, x2 = 0.2185	679.9 ± 0.37
362.95 K, 15000 kPa, x2 = 0.2185	680.96 ± 0.38
362.95 K, 16000 kPa, x2 = 0.2185	681.94 ± 0.39
362.95 K, 17000 kPa, x2 = 0.2185	682.95 ± 0.4
362.95 K, 18000 kPa, x2 = 0.2185	683.9 ± 0.41
362.95 K, 19000 kPa, x2 = 0.2185	684.89 ± 0.41
362.95 K, 20000 kPa, x2 = 0.2185	685.85 ± 0.42
362.95 K, 21000 kPa, x2 = 0.2185	686.79 ± 0.43
362.95 K, 22000 kPa, x2 = 0.2185	687.72 ± 0.44
362.95 K, 23000 kPa, x2 = 0.2185	688.63 ± 0.45
362.95 K, 24000 kPa, x2 = 0.2185	689.54 ± 0.46
362.95 K, 25000 kPa, x2 = 0.2185	690.43 ± 0.47
